Assay results reported in patent publication US12290510B2, “Polyvalent derivatives of emoxypine” (Riesner Verwaltungs GMBH, priority 2019, dated 2025).
Several values for one entry are separate records, joined by “and”; a condition that tells them apart may be missing. Identical values can stand only once.

Assays:
α-synuclein fibrils [1] = biological target: T1, α-synuclein fibrils (Homo sapiens, UniProt P37840); assay: Scanning electron microscope (SEM) images of α-synuclein fibrils without and with the triimine; conditions: sample with the triimine molecule (FIG. 3B) vs “superaggregated” structures without (FIG. 3A)
α-synuclein fibrils [2] = biological target: T1, α-synuclein fibrils; assay: Disaggregation of α-synuclein fibrils, thioflavin T (ThT) fluorescence emission at 482 nm; assay type: biochemical
Experimental: FIG. 1A depicts emission intensity of ThT at 482 nm (λexc=450 nm), in the presence of α-synuclein amyloids fibrils, with and without MHP-tren triimine (r70, light blue trace and yellow trace, respectively) from 1 minute to 3 days (72 h), where the bars from left to right in each set of histograms represents: control ThT; MHP tren-triimine; Aggregates+ThT+MHP tren-triimine; control ThT+MHP tren-triimine; and Aggregates+ThT, respectively.
FIG. 2 depicts emission intensity of ThT at 482 nm (λexc=450 nm), in the presence of α-synuclein amyloids fibrils, using Emoxypine r200, Emoxypine r100, MHP-tren triimine (also known as tri imino-emoxypine) r70 (light blue trace and yellow trace, respectively) from 1 minute to 3 days (72 h), where the bars from left to right in each set of histograms represents: α-synuclein+Emoxypine r200; α-synuclein+Emoxypine r100; and α-synuclein+MHP tren-triimine r70, respectively. The far leftmost bar of the graph, titled “Before addition of SOM” represents a sample without emoxypine or MHP tren-triimine, i.e. with 100% of α-synuclein aggregates left.
Disaggregation of α-synuclein fibrils using MHP-tren triimine (i.e., tri imino-emoxypine) was studied. The ratio of MHP-tren triimine:α-synuclein was 70 (r70).
Fluorescence measurements were performed by comparing the emission of thiovlavin T (ThT) in the presence of aggregates, without and with MHP-tren triimine at different times after the addition of MHP-tren triimine, from one minute to several days (λ emission of interest=482 nm, λ excitation=450 nm). Fluorescent measurements were also performed by comparing the emission of thiovlavin T (ThT) in the presence of aggregates and either emoxypine or MHP-tren triimine. The results (see, FIG. 1A-1B, FIG. 2 and Tables 1-2, below) show higher solubilization percentages using MHP-tren triimine as compared to emoxypine. […] The long-term efficiency of the triimine molecule is therefore better than that of its triamide analogue.

Row | SMILES | Appearance of α-synuclein sample in SEM images (α-synuclein fibrils [1]) | Percentage of solubilization (α-synuclein fibrils [2]; MHP-tren triimine:α-synuclein ratio 70 (r70), 1 min after addition) [%] | Percentage of solubilization (α-synuclein fibrils [2]; r70, 30 min after addition) | Percentage of solubilization (α-synuclein fibrils [2]; r70, 1 h after addition) [%] | Percentage of solubilization (α-synuclein fibrils [2]; r70, 24 h after addition) | Percentage of solubilization (α-synuclein fibrils [2]; r70, 48 h after addition) | Percentage of solubilization (α-synuclein fibrils [2]; r70, 72 h (3 days) after addition) | Percent of Solubilization (α-synuclein fibrils [2]; r100, 1 min) [%] | Percent of Solubilization (α-synuclein fibrils [2]; r100, 30 min) [%] | Percent of Solubilization (α-synuclein fibrils [2]; r100, 1 h) [%] | Percent of Solubilization (α-synuclein fibrils [2]; r100, 24 h) [%] | Percent of Solubilization (α-synuclein fibrils [2]; r100, 48 h) [%] | Percent of Solubilization (α-synuclein fibrils [2]; r100, 72 h) [%] | Percent of Solubilization (α-synuclein fibrils [2]; r200, 1 min) [%] | Percent of Solubilization (α-synuclein fibrils [2]; r200, 30 min) [%] | Percent of Solubilization (α-synuclein fibrils [2]; r200, 1 h) [%] | Percent of Solubilization (α-synuclein fibrils [2]; r200, 24 h) [%] | Percent of Solubilization (α-synuclein fibrils [2]; r200, 48 h) [%] | Percent of Solubilization (α-synuclein fibrils [2]; r200, 72 h) [%]
1 | Cc1ccc(O)c(/C=N/CCN(CC/N=C/c2nc(C)ccc2O)CC/N=C/c2nc(C)ccc2O)n1 [MHP-tren triimine, tri imino-emoxypine] | no apparent fiber or big aggregates-only small dots are visible | 27 | 47.1% and 57% | 71 | 72.8% and 73% | 79.5% and 79% | 86% and 86.1% | – | – | – | – | – | – | – | – | – | – | – | –
2 | CCc1nc(C)ccc1O [Emoxypine, emoxypine] | – | – | – | – | – | – | – | 50 | 59 | 48 | 53 | 49 | 62 | 69 | 65 | 61 | 60 | 61 | 63
